Measured values as given in PubChem BioAssay (NCI).
Several values for one entry are separate records, joined by “and”; a condition that tells them apart may be missing. Identical values can stand only once.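 Tested at 5 concentrations; 48 h exposure; 96-well plates; endpoints linearly interpolated, else capped at highest concentration. GI50 = concentration required for 50% inhibition of growth. TGI denotes the concentration required for complete inhibition of growth.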

Columns and labels:
Experiment in all cases: growth of human tumour cells (NCI), 48 h
IGROV1 ovarian = system: IGROV1 ovarian
MDA-MB-231 breast = system: MDA-MB-231 breast
SW-620 colon = system: SW-620 colon
HL-60(TB) leukemia = system: HL-60(TB) leukemia
ACHN renal = system: ACHN renal
SK-OV-3 ovarian = system: SK-OV-3 ovarian
NCI-H460 lung = system: NCI-H460 lung
K-562 leukemia = system: K-562 leukemia
SR leukemia = system: SR leukemia
DU-145 prostate = system: DU-145 prostate

Row | SMILES | GI50 (IGROV1 ovarian) [µM] | TGI (IGROV1 ovarian) | GI50 (MDA-MB-231 breast) [µM] | TGI (MDA-MB-231 breast) [µM] | GI50 (SW-620 colon) | TGI (SW-620 colon) | GI50 (HL-60(TB) leukemia) [µM] | TGI (HL-60(TB) leukemia) | GI50 (ACHN renal) [µM] | TGI (ACHN renal) [µM] | GI50 (SK-OV-3 ovarian) | TGI (SK-OV-3 ovarian) | GI50 (NCI-H460 lung) | TGI (NCI-H460 lung) | GI50 (K-562 leukemia) | TGI (K-562 leukemia) | GI50 (SR leukemia) [µM] | TGI (SR leukemia) [µM] | GI50 (DU-145 prostate) [µM] | TGI (DU-145 prostate) [µM]
1 | Cn1nc(C(F)(F)F)cc1-c1c[nH]c(OCc2ccc(Cl)cc2)c(-c2ccc(Cl)c(C(F)(F)F)c2)c1=O | 1.74 | > 40.5 µM | 1.13 | 3.51 | 1.44 µM | 7.74 µM | 1.09 | 2.55 µM | 1.28 | 4.23 | 1.36 µM | 4.19 µM | 0.944 µM | 5 µM | 0.724 µM | > 50 µM | 1.09 | > 14.3 | 1.64 | > 50
2 | CCNC(=O)Nc1ccc(Oc2ccnc3ccc4c(ccn4C)c23)cc1 | > 100 | > 100 µM | 26.3 | 62.8 | > 100 µM | > 100 µM | > 100 | > 100 µM | 59.2 | > 100 | 19.4 µM | 56.5 µM | 25 µM | > 100 µM | 47.4 µM | > 100 µM | 12.1 | > 100 | > 100 | > 100
3 | CCCc1cc(=O)n2c(C(=O)Nc3cccc(C(=O)OCC)c3)c(C(=O)Nc3ccc(F)cc3)sc2n1 | 24.8 | 65.9 µM | 1.6 | 7.2 | 12 µM | > 140 µM | > 140 | > 140 µM | 4.01 | 109 | 23.9 µM | 75 µM | 13.3 µM | > 140 µM | 60.3 µM | > 140 µM | 51.7 | > 140 | 58.8 | > 140
4 | N=N/C(=C\c1c(O)[nH]c2ccccc12)c1ccccc1 |  | > 100 µM |  | > 76.5 |  | > 100 µM |  | 17.5 µM |  | > 100 |  | > 90.2 µM |  | > 100 µM |  | > 100 µM |  | 97.5 |  | > 100
5 | CN(C)CCCCC(C(=O)CBr)(c1ccccc1)c1ccccc1 | 3.6 | 15.6 µM | 1.89 | 4.49 | 1.67 µM | 5.58 µM | 1.22 | 3.95 µM | 1.48 | 3.03 | 6.63 µM | 19.4 µM | 6.36 µM | 23 µM | 2.08 µM | 5.48 µM | 2.12 | 7.02 | 1.66 | 3.63
6 | COc1cc(/C(=C2/O[C@@H]([C@H]3COC(C)(C)O3)[C@H]3OC(C)(C)O[C@@H]23)c2ccc3ccccc3c2)cc(OC)c1OC | 3.3 | 10.9 µM | 6.28 | 69.7 | 4.31 µM | > 100 µM | 74.9 | > 100 µM | 4.4 | > 100 | 4.37 µM | > 100 µM | 4.1 µM | > 100 µM | 4.02 µM | > 100 µM | > 100 | > 100 | 4.33 | > 100
7 | CCCCCCCCC/C(=N\NC(=O)c1ccncc1)c1ccc(O)c(O)c1O | 0.184 | > 78.1 µM | 0.116 | 31.5 | 0.365 µM | 28.3 µM | 0.288 | 0.955 µM | 0.0734 | > 100 | 0.246 µM | > 100 µM | 0.0705 µM | 1.1 µM | 0.498 µM | > 100 µM | 0.0576 | 24.4 | 0.274 | > 100
8 | CCN1C(=O)N(CC)C2C1NN=c1s/c(=C\c3ccco3)c(=O)n12 (stereo unspecified) | 1.16 | > 100 µM | 0.961 | 41.2 | 0.439 µM | > 100 µM | 0.284 | 6 µM | 0.818 | > 100 | 0.816 µM | > 100 µM | 0.403 µM | > 100 µM | 0.311 µM | > 100 µM | 0.196 | > 100 | 0.703 | > 100
9 | O=C1NC2C(=CC(O)C(O)C2O)c2cc3c(cc21)OCO3 (stereo unspecified) | 0.393 | 9.21 µM and 3.01 µM |  | 2.39 | 0.412 µM and 0.199 µM | 4.07 µM and 19.9 µM |  | 0.282 µM and 0.213 µM and 0.594 µM | 0.334 | 1.57 | 0.232 µM and 0.272 µM | 7.09 µM and 4.31 µM | 0.251 µM and 0.147 µM | 2.01 µM and 1.3 µM | 0.294 µM and 0.149 µM | 3.64 µM and 7.68 µM |  | 0.566 |  | 1.83
10 | COc1cc(-c2oc3c(OC)cc(OC)c(O)c3c(=O)c2OC)cc(OC)c1OC |  | > 100 µM |  | > 100 |  | > 100 µM |  | > 100 µM |  | > 100 |  | 22.9 µM |  | > 100 µM |  | > 100 µM |  | > 100 |  | > 100
